Tests used:
Format in all cases: in vivo
[1] = tested on: common ragweed (AMBEL; Ambrosia artemisiifolia); assay: Test J pre-/postemergence, mixtures of Cpd. No. 20 with (b15C2)
Text: (§1) This test evaluated the effect of mixtures of Cpd. No. 20 with (b15C2) on several plant species. Seeds of plant species selected from corn (ZEAMD; Zea mays, cv. ‘Pioneer 1184’), soybean (GLXMA; Glycine max, cv. Pioneer 35T58), giant foxtail (SETFA; Setaria faberi), palmer amaranth (AMAPA; Amaranthus palmeri), common waterhemp (AMATU; Amaranthus rudis), mare's tail (ERICA; Conyza canadensis), and common ragweed (AMBEL; Ambrosia artemisiifolia) were planted in pots containing Tama Silt Loam soil and treated preemergence with a directed soil spray using test chemicals formulated in a non-phytotoxic solvent mixture which included a surfactant.
(§2) At the same time, plants selected from these crop and weed species were planted in pots containing Redi-Earth® planting medium (Scotts Company, 14111 Scottslawn Road, Marysville, Ohio 43041) comprising spaghnum peat moss, vermiculite, wetting agent and starter nutrients and treated postemergence with test chemicals formulated in the same manner. Plants ranged in height from 2 to 10 cm and were in the one- to two-leaf stage for the postemergence treatment. Treated plants and untreated controls were maintained in a greenhouse for approximately 14-21 d, after which time all treated plants were compared to untreated controls and visually evaluated for injury. Plant response ratings, summarized in Tables J1 & J2, are based on a 0 to 100 scale where 0 is no effect and 100 is complete control. A dash (-) response means no test result. Test results are presented as a mean of 4 reps.

[2] = tested on: common waterhemp (AMATU; Amaranthus rudis); assay: as above
Text: as §1, §2

[3] = tested on: corn (ZEAMD; Zea mays, cv. ‘Pioneer 1184’); assay: as above
Text: as §1, §2

[4] = tested on: giant foxtail (SETFA; Setaria faberi); assay: as above
Text: as §1, §2

[5] = tested on: mare's tail (ERICA; Conyza canadensis); assay: as above
Text: as §1, §2

[6] = tested on: palmer amaranth (AMAPA; Amaranthus palmeri); assay: as above
Text: as §1, §2

[7] = tested on: soybean (GLXMA; Glycine max, cv. Pioneer 35T58); assay: as above
Text: as §1, §2

[8] = tested on: sprangletop, Brdd. (bearded sprangletop, Leptochloa fascicularis); assay: Test F flooded paddy test; details: Flood, after 21 d
Text: Three plastic pots (ca. 16-cm diameter) per rate were partially filled with sterilized Tama silt loam soil comprising a 35:50:15 ratio of sand, silt and clay and 2.6% organic matter. Separate plantings for each of the three pots were as follows. Seeds from the U.S. of monochoria (Monochoria vaginalis), sedge, umbrella (small-flower umbrella sedge, Cyperus difformis) and redstem (purple redstem, Ammannia coccinea), were planted into one 16-cm pot for each rate. Seeds from the U.S. of rice flatsedge (Cyperus iria), sprangletop, Brdd. (bearded sprangletop, Leptochloa fascicularis), one stand of 9 or 10 water seeded rice seedlings (Rice, W. S. Jap, Oryza sativa cv. ‘Japonica-M202’ or Rice, W. S. Ind, ‘Indica’), and two stands of 3 or 4 transplanted rice seedlings (Oryza sativa cv. ‘Japonica-M202’) were planted into one 16-cm pot for each rate. Seeds from the U.S. of barnyardgrass (Echinochloa crus-galli), and late watergrass (Echinochloa oryzicola) were planted into one 16-cm pot for each rate.
Plantings were sequential so that crop and weed species were at the 2.0 to 2.5-leaf stage at time of treatment.
Potted plants were grown in a greenhouse with day/night temperature settings of 30/27° C., and supplemental balanced lighting was provided to maintain a 16-hour photoperiod. Test pots were maintained in the greenhouse until test completion.
At time of treatment, test pots were flooded to 3 cm above the soil surface, treated by application of test compounds directly to the paddy water, and then maintained at that water depth for the duration of the test. Effects of treatments on rice and weeds were visually evaluated by comparison to untreated controls after 21 d. Plant response ratings, summarized in Table F, are based on a scale of 0 to 100 where 0 is no effect and 100 is complete control. A dash (-) response means no test result.

With `Cc1ccc2ccc(C)c(-c3c(O)c(Cl)nn(C)c3=O)c2c1` [Cpd. No. 20, 6-chloro-4-(2,7-dimethyl-1-naphthalenyl)-5-hydroxy-2-methyl-3(2H)-pyridazinone] the “AMBEL plant response rating, 0 to 100 scale” value (“AMBEL plant response rating” below) ([1]; postemergence, 8 g a.i./ha) was 86, the “AMBEL plant response rating” value ([1]; postemergence, 16 g a.i./ha) was 93 and the “AMBEL plant response rating” value ([1]; postemergence, 31 g a.i./ha) was 91. For the same compound, the “AMBEL plant response rating” value ([1]; postemergence, 62 g a.i./ha) was 95, the “AMBEL plant response rating” value ([1]; preemergence, 8 g a.i./ha) was 0 and the “AMBEL plant response rating” value ([1]; preemergence, 16 g a.i./ha) was 100. For the same compound, the “AMBEL plant response rating” value ([1]; preemergence, 31 g a.i./ha) was 86, the “AMBEL plant response rating” value ([1]; preemergence, 62 g a.i./ha) was 96 and the “AMATU plant response rating, 0 to 100 scale” value (from here on “AMATU plant response rating”) ([2]; postemergence, 8 g a.i./ha) was 55. For the same compound, the “AMATU plant response rating” value ([2]; postemergence, 16 g a.i./ha) was 53, the “AMATU plant response rating” value ([2]; postemergence, 31 g a.i./ha) was 71 and the “AMATU plant response rating” value ([2]; postemergence, 62 g a.i./ha) was 86. The “AMATU plant response rating” value ([2]; preemergence, 8 g a.i./ha) was 0, the “AMATU plant response rating” value ([2]; preemergence, 16 g a.i./ha) was 20 and the “AMATU plant response rating” value ([2]; preemergence, 31 g a.i./ha) was 29. For the same compound, the “AMATU plant response rating” value ([2]; preemergence, 62 g a.i./ha) was 50, the “ZEAMD plant response rating, 0 to 100 scale” value (shortened to “ZEAMD plant response rating”) ([3]; postemergence, 8 g a.i./ha) was 0 and the “ZEAMD plant response rating” value ([3]; postemergence, 16 g a.i./ha) was 0. For the same compound, the “ZEAMD plant response rating” value ([3]; postemergence, 31 g a.i./ha) was 0, the “ZEAMD plant response rating” value ([3]; postemergence, 62 g a.i./ha) was 0 and the “ZEAMD plant response rating” value ([3]; preemergence, 8 g a.i./ha) was 0. For the same compound, the “ZEAMD plant response rating” value ([3]; preemergence, 16 g a.i./ha) was 0, the “ZEAMD plant response rating” value ([3]; preemergence, 31 g a.i./ha) was 0 and the “ZEAMD plant response rating” value ([3]; preemergence, 62 g a.i./ha) was 0. The “SETFA plant response rating, 0 to 100 scale” value (“SETFA plant response rating” below) ([4]; postemergence, 8 g a.i./ha) was 34, the “SETFA plant response rating” value ([4]; postemergence, 16 g a.i./ha) was 69 and the “SETFA plant response rating” value ([4]; postemergence, 31 g a.i./ha) was 75. The “SETFA plant response rating” value ([4]; postemergence, 62 g a.i./ha) was 80, the “SETFA plant response rating” value ([4]; preemergence, 8 g a.i./ha) was 15 and the “SETFA plant response rating” value ([4]; preemergence, 16 g a.i./ha) was 63. The “SETFA plant response rating” value ([4]; preemergence, 31 g a.i./ha) was 78, the “SETFA plant response rating” value ([4]; preemergence, 62 g a.i./ha) was 89 and the “ERICA plant response rating, 0 to 100 scale” value (from here on “ERICA plant response rating”) ([5]; postemergence, 8 g a.i./ha) was 85. The “ERICA plant response rating” value ([5]; postemergence, 16 g a.i./ha) was 90, the “ERICA plant response rating” value ([5]; postemergence, 31 g a.i./ha) was 90 and the “ERICA plant response rating” value ([5]; postemergence, 62 g a.i./ha) was 90. For the same compound, the “ERICA plant response rating” value ([5]; preemergence, 8 g a.i./ha) was 58, the “ERICA plant response rating” value ([5]; preemergence, 16 g a.i./ha) was 90 and the “ERICA plant response rating” value ([5]; preemergence, 31 g a.i./ha) was 94. For the same compound, the “ERICA plant response rating” value ([5]; preemergence, 62 g a.i./ha) was 95, the “AMAPA plant response rating, 0 to 100 scale” value (shortened to “AMAPA plant response rating”) ([6]; postemergence, 8 g a.i./ha) was 18 and the “AMAPA plant response rating” value ([6]; postemergence, 16 g a.i./ha) was 15. The “AMAPA plant response rating” value ([6]; postemergence, 31 g a.i./ha) was 33, the “AMAPA plant response rating” value ([6]; postemergence, 62 g a.i./ha) was 63 and the “AMAPA plant response rating” value ([6]; preemergence, 8 g a.i./ha) was 20. The “AMAPA plant response rating” value ([6]; preemergence, 16 g a.i./ha) was 46, the “AMAPA plant response rating” value ([6]; preemergence, 31 g a.i./ha) was 48 and the “AMAPA plant response rating” value ([6]; preemergence, 62 g a.i./ha) was 60. The “GLXMA plant response rating, 0 to 100 scale” value (“GLXMA plant response rating” below) ([7]; postemergence, 8 g a.i./ha) was 3, the “GLXMA plant response rating” value ([7]; postemergence, 16 g a.i./ha) was 4 and the “GLXMA plant response rating” value ([7]; postemergence, 31 g a.i./ha) was 9. The “GLXMA plant response rating” value ([7]; postemergence, 62 g a.i./ha) was 6, the “GLXMA plant response rating” value ([7]; preemergence, 8 g a.i./ha) was 0 and the “GLXMA plant response rating” value ([7]; preemergence, 16 g a.i./ha) was 0. For the same compound, the “GLXMA plant response rating” value ([7]; preemergence, 31 g a.i./ha) was 0 and the “GLXMA plant response rating” value ([7]; preemergence, 62 g a.i./ha) was 20.
In the case of `Cc1cc(Cl)c2ccccc2c1-c1c(O)c(Cl)nn(C)c1=O` [Cpd. No. 65], the “Plant response rating (0 to 100 scale)” value ([8]; 64 g ai/ha) is reported as 98 and the “Plant response rating (0 to 100 scale)” value ([8]; 125 g ai/ha) is reported as 100.

From patent publication US12435044B2, “Pyridazinone herbicides and pyridazinone intermediates used to prepare a herbicide” (FMC Corporation, priority 2018, dated 2025)
